According to US11053204B2, “Pyrimidinyloxy benzene derivatives as herbicides” (FMC Corporation, priority 2015, dated 2021):

Assays:
Format in all cases: in vivo
kochia (Kochia scoparia) [1] = assay: Test C postemergence, plant response rating; conditions: Bassia scoparia, post-emergence
Method in brief: (§1)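 After sowing in loam–sand blend or silt loam, pots were sprayed preemergence; separately grown 1- to 4-leaf plants were sprayed postemergence. Following 13 to 15 d under greenhouse conditions, injury was rated visually on a 0 to 100 scale.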

[2] = test system: ryegrass, Italian (Italian ryegrass, Lolium multiflorum); assay: Test C postemergence, plant response rating; conditions: Lolium multiflorum, post-emergence
Method in brief: as §1

soybean (Glycine max) = assay: Test C postemergence, plant response rating; conditions: Glycine max, post-emergence
Method in brief: as §1

[3] = test system: barnyardgrass (Echinochloa crus-galli); assay: Test C postemergence, plant response rating; conditions: Echinochloa crus-galli, post-emergence
Method in brief: as §1

[4] = test system: wheat (winter wheat, Triticum aestivum); assay: Test C postemergence, plant response rating; conditions: Triticum aestivum, post-emergence
Method in brief: as §1

[5] = test system: blackgrass (Alopecurus myosuroides); assay: Test C postemergence, plant response rating; conditions: Alopecurus myosuroides, post-emergence
Method in brief: as §1

[6] = test system: lambsquarters (Chenopodium album); assay: Test C postemergence, plant response rating; conditions: Chenopodium album, post-emergence
Method in brief: as §1

[7] = test system: oilseed rape (Brassica napus); assay: Test C postemergence, plant response rating; conditions: Brassica napus, post-emergence
Method in brief: as §1

[8] = test system: morningglory (Ipomoea coccinea); assay: Test C postemergence, plant response rating; conditions: Ipomoea, post-emergence
Method in brief: as §1

[9] = test system: foxtail, giant (giant foxtail, Setaria faberii); assay: Test C postemergence, plant response rating; conditions: Setaria faberi, post-emergence
Method in brief: as §1

corn (Zea mays) = assay: Test C postemergence, plant response rating; conditions: Zea mays, post-emergence
Method in brief: as §1

[10] = test system: nutsedge, yellow (yellow nutsedge, Cyperus esculentus); assay: Test C postemergence, plant response rating; conditions: Cyperus, post-emergence
Method in brief: as §1

[11] = test system: crabgrass, large (large crabgrass, Digitaria sanguinalis); assay: Test C postemergence, plant response rating; conditions: Digitaria sanguinalis, post-emergence
Method in brief: as §1

[12] = test system: oat, wild (wild oat Avena fatua); assay: Test C postemergence, plant response rating; conditions: Avena fatua, post-emergence
Method in brief: as §1

[13] = test system: chickweed (common chickweed, Stellaria media); assay: Test C postemergence, plant response rating; conditions: Stellaria media, post-emergence
Method in brief: as §1

kochia (Kochia scoparia) [14] = assay: Test A preemergence, visual injury rating; conditions: Bassia scoparia, pre-emergence, 240 h, 0 to 100 scale (0 no effect, 100 complete control), read-out: Kochia plant response rating
Method in brief: (§2)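 Greenhouse pot test, loam/sand soil. Formulation: non-phytotoxic solvent mix plus surfactant. Pre: directed spray onto soil after sowing. Post: plants at 1–2 leaf, 2–10 cm. Rated visually vs untreated controls at ~10 d, 0 (no effect) to 100 (complete control).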

[15] = test system: barnyardgrass (Echinochloa crus-galli); assay: Test A preemergence, visual injury rating; conditions: Echinochloa crus-galli, pre-emergence, 240 h, 0 to 100 scale (0 no effect, 100 complete control), read-out: Barnyardgrass plant response rating
Method in brief: as §2

[16] = 62 g ai/ha, scale 0 to 100 (0 no effect, 100 complete control)
[17] = 125 g ai/ha, scale 0 to 100 (0 no effect, 100 complete control)

For `O=C(OCC(F)(F)C(F)(F)F)c1c(Br)cccc1Oc1ncc(Cl)cn1` [Compound 23, 2,2,3,3,3-pentafluoropropyl 2-bromo-6-[(5-chloro-2-pyrimidinyl)oxy]benzoate], which pest or weed control at 16 g/ha (kochia (Kochia scoparia) [1]; 16 g ai/ha, scale 0 to 100) is on record?
The pest or weed control at 16 g/ha was 5%.

What about the pest or weed control at 31 g/ha (kochia (Kochia scoparia) [1]; 31 g ai/ha, scale 0 to 100) of the same compound?
Its pest or weed control at 31 g/ha is 50%.

What about the pest or weed control at 62 g/ha (kochia (Kochia scoparia) [1]; [16]) of the same compound?
Its pest or weed control at 62 g/ha is 55%.

And the pest or weed control at 125 g/ha (kochia (Kochia scoparia) [1]; [17])?
Its pest or weed control at 125 g/ha is 85%.

And the pest or weed control at 16 g/ha ([2]; 16 g ai/ha, scale 0 to 100)?
The pest or weed control at 16 g/ha was 0%.

What about the pest or weed control at 31 g/ha ([2]; 31 g ai/ha, scale 0 to 100) of the same compound?
The pest or weed control at 31 g/ha was 0%.

And the pest or weed control at 62 g/ha [2, 16]?
The pest or weed control at 62 g/ha was 5%.

And the pest or weed control at 125 g/ha [2, 17]?
Its pest or weed control at 125 g/ha is 5%.

And the plant injury at 16 g/ha (soybean (Glycine max); 16 g ai/ha, scale 0 to 100)?
Its plant injury at 16 g/ha is 20%.

And the plant injury at 31 g/ha (soybean (Glycine max); 31 g ai/ha, scale 0 to 100)?
The plant injury at 31 g/ha was 30%.

And the plant injury at 62 g/ha (soybean (Glycine max); [16])?
The plant injury at 62 g/ha was 70%.

What about the plant injury at 125 g/ha (soybean (Glycine max); [17]) of the same compound?
Its plant injury at 125 g/ha is 35%.

And the pest or weed control at 16 g/ha ([3]; 16 g ai/ha, scale 0 to 100)?
Its pest or weed control at 16 g/ha is 10%.

And the pest or weed control at 31 g/ha ([3]; 31 g ai/ha, scale 0 to 100)?
The pest or weed control at 31 g/ha was 10%.

What about the pest or weed control at 62 g/ha [3, 16] of the same compound?
The pest or weed control at 62 g/ha was 10%.

And the pest or weed control at 125 g/ha [3, 17]?
The pest or weed control at 125 g/ha was 20%.

What about the plant injury at 16 g/ha ([4]; 16 g ai/ha, scale 0 to 100) of the same compound?
Its plant injury at 16 g/ha is 0%.

What about the plant injury at 31 g/ha ([4]; 31 g ai/ha, scale 0 to 100) of the same compound?
The plant injury at 31 g/ha was 0%.

What about the plant injury at 62 g/ha ([4]; 62 g ai/ha, scale 0 to 100 (0 no effect, 100 complete control), read-out: Wheat plant response rating) of the same compound?
Its plant injury at 62 g/ha is 0%.

And the plant injury at 125 g/ha [4, 17]?
The plant injury at 125 g/ha was 0%.

And the pest or weed control at 16 g/ha ([5]; 16 g ai/ha, scale 0 to 100)?
Its pest or weed control at 16 g/ha is 0%.

And the pest or weed control at 31 g/ha ([5]; 31 g ai/ha, scale 0 to 100)?
The pest or weed control at 31 g/ha was 5%.

And the pest or weed control at 62 g/ha [5, 16]?
Its pest or weed control at 62 g/ha is 15%.

What about the pest or weed control at 125 g/ha [5, 17] of the same compound?
Its pest or weed control at 125 g/ha is 20%.

What about the pest or weed control at 16 g/ha ([6]; 16 g ai/ha, scale 0 to 100) of the same compound?
Its pest or weed control at 16 g/ha is 25%.

And the pest or weed control at 31 g/ha ([6]; 31 g ai/ha, scale 0 to 100)?
The pest or weed control at 31 g/ha was 55%.

What about the pest or weed control at 62 g/ha [6, 16] of the same compound?
The pest or weed control at 62 g/ha was 65%.

And the pest or weed control at 125 g/ha [6, 17]?
The pest or weed control at 125 g/ha was 80%.

What about the plant injury at 16 g/ha ([7]; 16 g ai/ha, scale 0 to 100) of the same compound?
The plant injury at 16 g/ha was 5%.

And the plant injury at 31 g/ha ([7]; 31 g ai/ha, scale 0 to 100)?
Its plant injury at 31 g/ha is 5%.

And the plant injury at 62 g/ha [7, 16]?
Its plant injury at 62 g/ha is 50%.

And the plant injury at 125 g/ha [7, 17]?
The plant injury at 125 g/ha was 35%.

What about the pest or weed control at 16 g/ha ([8]; 16 g ai/ha, scale 0 to 100) of the same compound?
The pest or weed control at 16 g/ha was 10%.

What about the pest or weed control at 31 g/ha ([8]; 31 g ai/ha, scale 0 to 100) of the same compound?
The pest or weed control at 31 g/ha was 55%.

And the pest or weed control at 62 g/ha [8, 16]?
Its pest or weed control at 62 g/ha is 60%.

And the pest or weed control at 125 g/ha [8, 17]?
Its pest or weed control at 125 g/ha is 35%.

And the pest or weed control at 16 g/ha ([9]; 16 g ai/ha, scale 0 to 100)?
The pest or weed control at 16 g/ha was 10%.

And the pest or weed control at 31 g/ha ([9]; 31 g ai/ha, scale 0 to 100)?
The pest or weed control at 31 g/ha was 35%.

What about the pest or weed control at 62 g/ha [9, 16] of the same compound?
The pest or weed control at 62 g/ha was 25%.

And the pest or weed control at 125 g/ha [9, 17]?
Its pest or weed control at 125 g/ha is 30%.

What about the Corn plant response rating (crop injury, 0 = no effect, 100 = complete kill) at 16 g/ha (corn (Zea mays); 16 g ai/ha, scale 0 to 100) of the same compound?
Its Corn plant response rating (crop injury, 0 = no effect, 100 = complete kill) at 16 g/ha is 5%.

What about the Corn plant response rating (crop injury, 0 = no effect, 100 = complete kill) at 31 g/ha (corn (Zea mays); 31 g ai/ha, scale 0 to 100) of the same compound?
Its Corn plant response rating (crop injury, 0 = no effect, 100 = complete kill) at 31 g/ha is 5%.

What about the plant injury at 62 g/ha (corn (Zea mays); [16]) of the same compound?
Its plant injury at 62 g/ha is 5%.

And the plant injury at 125 g/ha (corn (Zea mays); [17])?
The plant injury at 125 g/ha was 10%.

What about the pest or weed control at 16 g/ha ([10]; 16 g ai/ha, scale 0 to 100) of the same compound?
The pest or weed control at 16 g/ha was 0%.

What about the pest or weed control at 31 g/ha ([10]; 31 g ai/ha, scale 0 to 100) of the same compound?
The pest or weed control at 31 g/ha was 0%.

And the pest or weed control at 62 g/ha [10, 16]?
Its pest or weed control at 62 g/ha is 5%.

And the pest or weed control at 125 g/ha [10, 17]?
The pest or weed control at 125 g/ha was 10%.

And the pest or weed control at 16 g/ha ([11]; 16 g ai/ha, scale 0 to 100)?
The pest or weed control at 16 g/ha was 10%.

And the pest or weed control at 31 g/ha ([11]; 31 g ai/ha, scale 0 to 100)?
The pest or weed control at 31 g/ha was 10%.

And the pest or weed control at 62 g/ha [11, 16]?
The pest or weed control at 62 g/ha was 20%.

What about the pest or weed control at 125 g/ha [11, 17] of the same compound?
The pest or weed control at 125 g/ha was 25%.

What about the pest or weed control at 16 g/ha ([12]; 16 g ai/ha, scale 0 to 100) of the same compound?
Its pest or weed control at 16 g/ha is 5%.

And the pest or weed control at 31 g/ha ([12]; 31 g ai/ha, scale 0 to 100)?
The pest or weed control at 31 g/ha was 5%.

What about the pest or weed control at 62 g/ha [12, 16] of the same compound?
The pest or weed control at 62 g/ha was 10%.

What about the pest or weed control at 125 g/ha [12, 17] of the same compound?
Its pest or weed control at 125 g/ha is 5%.

What about the pest or weed control at 16 g/ha ([13]; 16 g ai/ha, scale 0 to 100) of the same compound?
Its pest or weed control at 16 g/ha is 5%.

What about the pest or weed control at 31 g/ha ([13]; 31 g ai/ha, scale 0 to 100) of the same compound?
Its pest or weed control at 31 g/ha is 50%.

And the pest or weed control at 62 g/ha [13, 16]?
The pest or weed control at 62 g/ha was 50%.

What about the pest or weed control at 125 g/ha [13, 17] of the same compound?
The pest or weed control at 125 g/ha was 85%.

And the pest or weed control at 125 g/ha (kochia (Kochia scoparia) [14]; 125 g ai/ha)?
The pest or weed control at 125 g/ha was 0%.

And the pest or weed control at 500 g/ha (kochia (Kochia scoparia) [14]; 500 g ai/ha)?
Its pest or weed control at 500 g/ha is 50%.

And the pest or weed control at 125 g/ha ([15]; 125 g ai/ha)?
The pest or weed control at 125 g/ha was 20%.

And the pest or weed control at 500 g/ha ([15]; 500 g ai/ha)?
The pest or weed control at 500 g/ha was 70%.
